We go through eleven molecules from patent US20220265759A1, “COMPOSITION AND METHOD FOR PROMOTING WOUND HEALING” (THE BOARD OF TRUSTEES OF THE UNIVERSITY OF ILLIOIS, priority 2019, published 2022).

Square brackets hold non-standard residues; d marks the D form. Ends that are not written are not given here. Peptide text beside a SMILES is read from it. * marks the point of attachment. d2Nal = N[C@H](Cc1ccc2ccccc2c1)C(=O)O; Myristoyl = CCCCCCCCCCCCCC(=O)*; Aib = CC(C)(N)C(=O)O

The conditions of data set [1]: cited from earlier work.
For data set [2], the system named is HUVECs. Briefly: Endothelial cell tube formation induced by CCL28. The class given is cell-based, human. The conditions noted are these: induced by 500 ng/ml CCL28. Here is the method:
Endothelial Cell Tube Formation. HUVECs were transfected with eNOS (50 nM), CCR10 (100 nM), or scrambled control (100 nM) siRNA and, after 48 hours, the cells were transferred to 96-well plates preloaded with extracellular matrix sold under the tradename […]®. To examine the CCL28 signaling pathways, HUVECs were pre-incubated with vehicle or specific inhibitors and then stimulated with or without CCL28 as described previously (Chen, et al. (2015) Ann. Rheum. Dis. 74:1898-1906).
The role of CCL28/CCR10 signaling pathways was further investigated in angiogenesis. Pretreatment of cells with 10 μM wortmannin (PI3K inhibitor), 5 μM U0126 (MAPK/ERK inhibitor), 1 mM L-NAME (eNOS inhibitor), 10 μM PP2 (Src kinase inhibitor), and 10 μM STO-609 ([…]) reduced endothelial cell tube formation induced by 500 ng/ml CCL28. […] In addition, CCL28 stimulation of endothelial cells for 24 hours enhanced expression levels of cell adhesion protein […] and anti-apoptotic protein B-cell leukemia/lymphoma-2 (Bcl-2), supporting the proliferation potential of endothelial cells in response to stimulation with CCL28.

Data set [3] concerns the target T1, CCR10-eNOS interaction (Homo sapiens, UniProt P46092).
T1 construct: host or cells: HUVEC (primary human umbilical vein endothelial cells)
T1 sequence (P46092 1-362): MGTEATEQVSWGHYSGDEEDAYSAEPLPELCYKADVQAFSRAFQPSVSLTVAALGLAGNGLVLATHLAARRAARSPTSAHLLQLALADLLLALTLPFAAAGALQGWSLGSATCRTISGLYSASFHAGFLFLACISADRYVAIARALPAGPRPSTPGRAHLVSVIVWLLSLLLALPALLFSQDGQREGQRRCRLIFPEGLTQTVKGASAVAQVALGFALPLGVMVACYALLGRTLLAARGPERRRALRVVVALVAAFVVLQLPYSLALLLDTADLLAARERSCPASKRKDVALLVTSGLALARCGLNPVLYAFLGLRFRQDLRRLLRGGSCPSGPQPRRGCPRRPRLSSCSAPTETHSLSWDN
Briefly: Ligand-induced CCR10-eNOS interaction in HUVEC (Co-IP, confocal co-localization). It is filed as cell-based. Here is the method: (§1) Co-IP Experiments, cells or mouse wounds were collected after treatment, and lysed in 2% ODG in Tris buffer. The homogenates were further prepared for Co-IP experiments as described in the art (Chen, et al. (2018) Mol. Biol. Cell 29(10):1190-1202; Chen, et al. (2020) FASEB J. 34(4):5838-5850; Chen, et al. (2015) Ann. Rheum. Dis. 74:1898-1906).
Confocal Microscopy. For cellular immunostaining, confluent monolayers of cells grown on coverslips were prepared as described previously (Chen, et al. (2012) Mel. Biol. Cell 23(7):1388-1398). Fluorescent images were obtained using a Zeiss LSM 880 confocal microscope. The co-localization coefficient in specified regions of interest (ROI) were determined using Zeiss Zen software. Briefly, using the Overlay tool, the desired ROI was drawn along the cell edge and the values for the ROIs tabulated. The scatterplot and table were automatically adjusted to the pixel distribution for the selected ROI. The data from different treatment groups were collected and analyzed for statistical significance as described previously (Chen, et al. (2020) FASEB J. 34(4):5838-5850).
To investigate whether CCR10 interacts directly with eNOS, primary culture HUVEC were collected and prepared for co-immunoprecipitation (Co-IP) to assess CCR10-eNOS interaction following stimulation with 5 μM A23187. […] Similar results were obtained in endothelial cells following stimulation with 500 ng/ml human recombinant CCL28. CCR10-eNOS interaction was further supported by confocal microscopy and high-resolution imaging. Upon stimulation with A23187 or CCL28 for 5 minutes, CCR10 co-localized to a greater extent with eNOS on the plasma membrane. Co-localization coefficient in the regions of interest (ROI) in the plasma membrane were quantified from Zeiss LSM 880 confocal microscope images using Zeiss Zen software.

Data set [4] concerns the target T1, CCR10-eNOS interaction. Briefly: Co-IP of CCR10-eNOS interaction in HUVECs stimulated with A23187. It is filed as cell-based. To be noted: endothelial cells (HUVECs), pretreatment 50 μM, 5 μM A23187 for 5 minutes, vs control peptide. Here is the method:
Immunoblot and Co-Immunoprecipitation (Co-IP). After serum starvation, inhibitors were added 45 minutes prior to stimulation for indicated times at 37° C., and cells were then collected and lysed for western blot analysis. After probing for p-eNOS (Ser1177), p-p85 (Tyr458), p-Src (Tyr 416), and p-ERK (T202/Y204), the same blots were stripped and re-probed for total proteins mentioned above. For detection of CCL28-induced protein levels of β-catenin and Bcl-2, near-confluent endothelial cells were incubated with 500 ng/ml CCL28 for 24 hours in EGM-2 medium containing 1% FBS.
as §1
Therefore, the effect of inhibition of CCR10-eNOS interaction was investigated using a panel of cell-permeable peptides based on the sequence of the predicted interaction domain on eNOS. Similar peptides have been described in determining the solution structure of calmodulin bound to the target peptide of eNOS (Piazza, et al. (2014) Biochemistry 53(8):1241-9; Piazza, et al. (2016) Biochemistry 55(42):5962-71). First, myristoylated 20 amino acid peptide (491-[…]-510 (P1); SEQ ID NO:61) was synthesized based on the sequence of human eNOS (which is conserved in mouse eNOS). […] It was subsequently determined whether truncated versions of the CBD-derived peptide would have the same effect.

With `CC(C)(N)C(=O)N[C@@H](Cc1c[nH]cn1)C(=O)N[C@H](Cc1ccc2ccccc2c1)C(=O)N[C@H](Cc1ccccc1)C(=O)N[C@@H](CCCCN)C(N)=O` [Ipamorelin] (H-[Aib]H[d2Nal][dF]K-NH2), in data set [1] (in humans), the terminal half-life entry is recorded as “about 2 hours”.

Turning to `COC(=O)[C@@H](N)CCCNC(=N)N[N+](=O)[O-]` [L-NAME, N^G-nitro-L-arginine methyl ester], the “endothelial cell tube formation” value in data set [2] (pretreatment 1 mM) was “reduced”.

Regarding `CNc1ccc2oc(C[C@H]3O[C@@]4(CC[C@H]3C)O[C@H]([C@H](C)C(=O)c3ccc[nH]3)[C@H](C)C[C@H]4C)nc2c1C(=O)O` [Peptide A23187], in data set [3] (HUVEC, 5 μM), the “binding of CCR10 to eNOS (Co-IP)” value is “Enhanced” and the “time of maximum CCR10-eNOS binding” value is given as 5 minutes. Moreover, in data set [3] (plasma membrane ROI, stimulation for 5 minutes, untreated control cells 43%), the “Co-localization coefficient of CCR10 and eNOS” value is reported as 81%.

As for `N#CC(=C(/N)Sc1ccccc1N)/C(C#N)=C(\N)Sc1ccccc1N` [Peptide U0126], the “endothelial cell tube formation” value in data set [2] (pretreatment 5 μM) was “reduced”.

Regarding `O=C(O)c1ccc2c3c1cccc3c(=O)n1c3ccccc3nc21` [STO-609], the “endothelial cell tube formation” value in data set [2] (pretreatment 10 μM) is recorded as “reduced”.

Broadly, the half-life is how long it takes for the measured level to halve. Regarding `NC(=O)CC[C@@H]1NC(=O)[C@H](Cc2ccccc2)NC(=O)[C@H](Cc2ccc(O)cc2)NC(=O)[C@@H](N)CSSC[C@@H](C(=O)N2CCC[C@H]2C(=O)N[C@@H](CCCN=C(N)N)C(=O)NCC(N)=O)NC(=O)[C@H](CC(N)=O)NC1=O` [vasopressin], the half-life in data set [1] (in humans) was 0.167 to 0.583 h.

For albiglutide, in data set [1] (in humans), the half-life was 140 to 170 h.

As to “myr-FKEVANAVKISASLM (Myristoyl-FKEVANAVKISASLM) [Peptide P2]”, the “CCR10-eNOS interaction (Co-IP)” value in data set [4] is “completely blocked”.

Take “myr-TRKKTFKEVANAVKISASLM (Myristoyl-TRKKTFKEVANAVKISASLM) [Peptide P1]”: the “CCR10-eNOS interaction (Co-IP)” value in data set [4] is listed as “completely blocked”; in data set [4] (listed as Myr-CBD20) it was “significantly reduced”.

On to “myr-VANAVKISASLM (Myristoyl-VANAVKISASLM) [Peptide P3]”, for which, in data set [4], the “CCR10-eNOS interaction (Co-IP)” value is given as “completely blocked”.

In the case of peginesatide, the elimination half-life in data set [1] (in healthy volunteers) is 18.9 h.
